Among the test systems are IGROV1 ovarian; A549 NSCLC; SF-539 CNS; SK-OV-3 ovarian; KM12 colon; SK-MEL-28 melanoma; DU-145 prostate; T-47D breast; PC-3 prostate; NCI-H522 lung.
Assay in all cases: inhibition of tumour cell growth, NCI panel, 48 h

TGI and GI50 data for 20 molecules are collected here from PubChem BioAssay (NCI).

SMILES strings stand for the structures.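 Compound exposure: 48 hours, 5 concentrations, 96-well plates. GI50 marks 50% less growth. TGI marks complete inhibition of growth.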

With `O=C(Oc1ccc(Cl)cc1[N+](=O)[O-])c1ccccc1`, the TGI in the experiment on IGROV1 ovarian, with A549 NSCLC, in the experiment on SF-539 CNS, with SK-OV-3 ovarian, with KM12 colon and in the experiment with SK-MEL-28 melanoma was over 100 µM throughout.
In the case of `COc1cc(/C=C/C(=O)CC(=O)/C=C/c2ccc(O)c(OC)c2)ccc1O`, the TGI was found to be 26.7 µM with IGROV1 ovarian; 31.7 µM in the experiment on A549 NSCLC; 8.87 µM in the experiment with SF-539 CNS; 21 µM in the experiment with SK-OV-3 ovarian; 29.7 µM in the experiment on DU-145 prostate; 46.9 µM in the experiment with T-47D breast. In addition, the TGI with KM12 colon was found to be 19.7 µM; in the experiment with SK-MEL-28 melanoma it was 15.9 µM; in the experiment with PC-3 prostate, 26 µM; in the experiment on NCI-H522 lung, 16.7 µM.
In the case of `C=C1C(=O)OC2CC1CCC1(C)OC1CCC(C)=CCCC2(C)O` (configuration not stated), the TGI came to 15.8 µM in the experiment with IGROV1 ovarian; 26.9 µM in the experiment on A549 NSCLC; 10.5 µM in the experiment with SF-539 CNS; 36.7 µM in the experiment on SK-OV-3 ovarian; 12.9 µM in the experiment with KM12 colon; 10.7 µM in the experiment with SK-MEL-28 melanoma. The TGI in the experiment on NCI-H522 lung worked out at 3.69 µM.
For the molecule `C=CCNS(=O)(=O)c1ncnc2nc[nH]c12`, the TGI in the experiment with IGROV1 ovarian, in the experiment on A549 NSCLC, with SK-OV-3 ovarian, in the experiment with DU-145 prostate, with T-47D breast and with KM12 colon was over 100 µM in each case. The TGI in the experiment with SK-MEL-28 melanoma, in the experiment on PC-3 prostate and with NCI-H522 lung was over 100 µM throughout.
With `C=CCSSCC=C`, the TGI in the experiment with IGROV1 ovarian was over 100 µM; in the experiment on A549 NSCLC, over 100 µM; with SF-539 CNS, over 71.9 µM; with SK-OV-3 ovarian, over 100 µM; with DU-145 prostate, over 100 µM; in the experiment with T-47D breast it was over 100 µM. Moreover, the TGI in the experiment on KM12 colon, in the experiment with SK-MEL-28 melanoma, with PC-3 prostate and in the experiment on NCI-H522 lung was over 100 µM in each case.
On to `Br/C(=N\Nc1nn[nH]n1)c1ccncc1`, for which the TGI in the experiment on IGROV1 ovarian, in the experiment with A549 NSCLC, in the experiment with SF-539 CNS, with SK-OV-3 ovarian, in the experiment on DU-145 prostate and in the experiment with T-47D breast was over 100 µM each time. The TGI in the experiment with KM12 colon, with SK-MEL-28 melanoma, with PC-3 prostate and in the experiment on NCI-H522 lung was over 100 µM in each case.
On to `CC(=O)NNC(=O)C1CCCCN1` (configuration not stated), for which the TGI in the experiment with IGROV1 ovarian, with A549 NSCLC, in the experiment on SF-539 CNS, in the experiment with SK-OV-3 ovarian, in the experiment on DU-145 prostate and with KM12 colon was over 100 µM in each case. Besides, the TGI in the experiment with SK-MEL-28 melanoma, in the experiment on PC-3 prostate and with NCI-H522 lung was over 100 µM each time.
On to `COc1ccc(NC(=S)N/N=C(\C)c2nc3ncccc3[nH]2)cc1`, for which the TGI in the experiment on IGROV1 ovarian was 53.6 µM; in the experiment with A549 NSCLC, over 100 µM; in the experiment with SF-539 CNS, 13.7 µM; in the experiment on SK-OV-3 ovarian, over 100 µM; in the experiment with DU-145 prostate, over 100 µM; in the experiment on T-47D breast, 92.4 µM. The TGI was over 100 µM in the experiment on KM12 colon, over 100 µM with SK-MEL-28 melanoma, 45.2 µM with PC-3 prostate and 37.5 µM with NCI-H522 lung.
Take `CN1CC(CNC(=O)OCc2ccccc2)CC2c3cccc4c3c(cn4C)CC21` (configuration not stated): the GI50 with IGROV1 ovarian is 1.77 µM; in the experiment on A549 NSCLC, 2.22 µM; in the experiment with SF-539 CNS, 1.64 µM; in the experiment on DU-145 prostate, 3.88 µM; with T-47D breast, 2.26 µM; with KM12 colon, 2.14 µM. Besides, the results for the GI50 with SK-MEL-28 melanoma, in the experiment with PC-3 prostate and with NCI-H522 lung were 1.62 µM, 2.07 µM and 1.73 µM, respectively. For the same molecule, the TGI in the experiment on IGROV1 ovarian turned out to be 4.49 µM; with A549 NSCLC, 5.24 µM; in the experiment on SF-539 CNS, 3.24 µM; in the experiment on DU-145 prostate, 14.4 µM; in the experiment with T-47D breast, 4.67 µM; in the experiment with KM12 colon, 4.65 µM. For the same molecule, the TGI came to 3.03 µM in the experiment on SK-MEL-28 melanoma, 6.28 µM with PC-3 prostate and 3.33 µM with NCI-H522 lung.
As for `COc1c(OC/C=C(\C)CCC=C(C)C)ccc2ccc(=O)oc12`, the TGI in the experiment on IGROV1 ovarian, in the experiment with A549 NSCLC, in the experiment on SF-539 CNS, in the experiment on SK-OV-3 ovarian, in the experiment on DU-145 prostate and in the experiment on T-47D breast was over 100 µM each time. Moreover, the TGI in the experiment on KM12 colon, in the experiment on SK-MEL-28 melanoma, in the experiment on PC-3 prostate and with NCI-H522 lung was over 100 µM each time.
`COc1ccc(OC)c(CC(C)N)c1` (configuration not stated): the TGI with IGROV1 ovarian, in the experiment with A549 NSCLC, in the experiment on SF-539 CNS, with SK-OV-3 ovarian, in the experiment on KM12 colon and with SK-MEL-28 melanoma was over 100 µM each time. In addition, the TGI with NCI-H522 lung is over 100 µM.
`O=C(/C=C/c1ccccc1)N1CCCCC1`: the TGI in the experiment on IGROV1 ovarian, in the experiment on A549 NSCLC, with SF-539 CNS, in the experiment with SK-OV-3 ovarian, in the experiment with DU-145 prostate and in the experiment with T-47D breast was over 100 µM each time. Also, the TGI in the experiment with KM12 colon, in the experiment with SK-MEL-28 melanoma, in the experiment with PC-3 prostate and in the experiment with NCI-H522 lung was over 100 µM each time.
As to `O=C1OCc2cc3cc4c(cc3c(-c3ccc5c(c3)OCO5)c21)OCO4` (tested in a mixture with another compound), the TGI in the experiment with IGROV1 ovarian was 66.7 µM; with SK-OV-3 ovarian, 48.1 µM; in the experiment with DU-145 prostate, 55.2 µM; in the experiment with T-47D breast, over 100 µM; with KM12 colon, over 100 µM; in the experiment with SK-MEL-28 melanoma, over 100 µM. For the same molecule, the TGI in the experiment with PC-3 prostate was over 100 µM.
As for `Cn1c2c3ccc(Cl)cc3nc-2c(Cl)c2ccccc21`, the TGI with IGROV1 ovarian is 42 µM; in the experiment with A549 NSCLC it was over 100 µM; in the experiment on SF-539 CNS it was 49.2 µM; with SK-OV-3 ovarian, over 100 µM; in the experiment with DU-145 prostate, 33.4 µM; in the experiment on T-47D breast, over 100 µM. For the same molecule, the TGI in the experiment on KM12 colon was found to be 53.9 µM; with SK-MEL-28 melanoma, 43.9 µM; in the experiment on PC-3 prostate it was 38.1 µM; in the experiment with NCI-H522 lung, 33.6 µM.
Consider `O=C1OC2CC=CC1C2` (configuration not stated), for which the TGI in the experiment on IGROV1 ovarian, with A549 NSCLC, with SF-539 CNS, in the experiment on SK-OV-3 ovarian, with KM12 colon and with SK-MEL-28 melanoma was over 100 µM in each case. For the same molecule, the TGI with NCI-H522 lung was over 100 µM.
Take `O=C(COc1ccc(Cl)c(Cl)c1)N(Cc1ccccc1)Cc1ccc[n+](Cc2ccc(Cl)cc2S(=O)(=O)F)c1`: the TGI with IGROV1 ovarian, in the experiment with A549 NSCLC, with SF-539 CNS, in the experiment on SK-OV-3 ovarian, in the experiment on DU-145 prostate and in the experiment on T-47D breast was over 100 µM throughout. In addition, the TGI with KM12 colon is 56.6 µM; in the experiment on SK-MEL-28 melanoma, over 100 µM; in the experiment on PC-3 prostate it was over 100 µM; with NCI-H522 lung, over 100 µM.
For `O=C1CCCC2C3CC(CN12)C1CCCCN1C3` (configuration not stated), the TGI with IGROV1 ovarian, with A549 NSCLC, with SF-539 CNS, in the experiment with SK-OV-3 ovarian, in the experiment with DU-145 prostate and in the experiment with T-47D breast was over 100 µM throughout. In addition, the TGI in the experiment on KM12 colon, in the experiment with SK-MEL-28 melanoma, in the experiment with PC-3 prostate and in the experiment with NCI-H522 lung was over 100 µM in each case.
For `CCCC(=O)O.CCCC(=O)O.CCCC(=O)O.CCCC(=O)O.[Rh].[Rh]`, the GI50 in the experiment with IGROV1 ovarian was 0.189 µM; in the experiment with SK-OV-3 ovarian, 0.278 µM; with DU-145 prostate, 0.181 µM; in the experiment on T-47D breast it was 0.0312 µM; with KM12 colon it was 0.172 µM; in the experiment with PC-3 prostate, 0.0618 µM. Further, the TGI was 0.73 µM with IGROV1 ovarian; 0.829 µM in the experiment with SK-OV-3 ovarian; 0.491 µM in the experiment with DU-145 prostate; 0.0985 µM with T-47D breast; 0.366 µM in the experiment on KM12 colon; 0.47 µM in the experiment on PC-3 prostate.
`Cl/C(=C\C=Nc1ccc(I)cc1)c1ccc2ccccc2c1`: the TGI with IGROV1 ovarian is over 55.7 µM; with A549 NSCLC, over 100 µM; with SF-539 CNS, 44.4 µM; in the experiment with SK-OV-3 ovarian, 74.4 µM; in the experiment with DU-145 prostate it was over 61.4 µM; with T-47D breast, 61.9 µM. Moreover, the TGI was 33.5 µM in the experiment with KM12 colon, 46.2 µM in the experiment on SK-MEL-28 melanoma, over 100 µM with PC-3 prostate and over 100 µM in the experiment on NCI-H522 lung.
Regarding `c1ccc(C[N+]23CN4CN(CN(C4)C2)C3)cc1`, the TGI with IGROV1 ovarian was over 100 µM; in the experiment on A549 NSCLC it was 91.8 µM; with SF-539 CNS, 51.9 µM; with SK-OV-3 ovarian it was over 100 µM; in the experiment on DU-145 prostate, 91.8 µM; in the experiment on T-47D breast, 87.4 µM. Moreover, the TGI in the experiment with KM12 colon was over 100 µM; in the experiment on SK-MEL-28 melanoma it was 60.9 µM; in the experiment on PC-3 prostate it was 35.7 µM; with NCI-H522 lung, over 100 µM.
